Reference: ChEMBL document CHEMBL1151801, “Synthesis of new indeno[1,2-e]pyrimido[4,5-b][1,4]diazepine-5,11-diones as potential antitumor agents” (2008)
Calls of active or inactive are those of the source. No cut-off for these calls is given here.

system: NCI60; assay: Antitumor activity against human NCI60 cells at 1 uM; format: functional, cell-based

SMILES | Activity
COc1ccc(C2Nc3nc(SC)n(C)c(=O)c3NC3=C2C(=O)c2ccccc23)cc1 (stereo not given) | inactive
CSc1nc2c(c(=O)n1C)NC1=C(C(=O)c3ccccc31)C(c1ccccc1)N2 (stereo not given) | inactive
COc1nc2c(c(=O)n1C)NC1=C(C(=O)c3ccccc31)C(c1ccccc1)N2 (stereo not given) | inactive
COc1ccc(C2Nc3nc(SC)[nH]c(=O)c3NC3=C2C(=O)c2ccccc23)cc1 (stereo not given) | inactive
COc1ccc(C2Nc3nc(OC)n(C)c(=O)c3NC3=C2C(=O)c2ccccc23)cc1 (stereo not given) | inactive
